Results reported in the NIST ThermoML archive (doi:10.1021/je500363r).
± gives the expanded uncertainty stated by the source.

What was measured:
[1] = Molar enthalpy of transition or fusion; conditions: Crystal; DSC
[2] = Crystal; DTA

Br.CC(C)c1ccc(NC2=NCCC3(CCCCC3)[Se]2)cc1
Molar enthalpy of transition or fusion [1]: 3.08 ± 0.239 kcal/mol | Normal melting temperature [2]: 148.4 ± 0.5 °C

Br.c1ccc(NC2=NCCC3(CCCCC3)[Se]2)cc1
Molar enthalpy of transition or fusion [1]: 4.3 ± 0.263 kcal/mol | Normal melting temperature [2]: 144.8 ± 0.5 °C

Br.Fc1ccc(NC2=NCCC3(CCCCC3)[Se]2)cc1
Molar enthalpy of transition or fusion [1]: 6 ± 0.263 kcal/mol | Normal melting temperature [2]: 196.2 ± 0.5 °C
